Reference: paper PMC6713143, “Design, synthesis and biological activity of selective hCAs inhibitors based on 2-(benzylsulfinyl)benzoic acid scaffold” (Journal of Enzyme Inhibition and Medicinal Chemistry, 2019)
Like-named read-outs stand apart in the source and are kept apart here.

Key:
hCA I [1] = target: T1, hCA I (Homo sapiens, UniProt P00915); assay: stopped-flow CO2 hydrase assay, hCA I; format: biochemical; settings: mean from three determinations, errors 5–10%
T1 construct: made in house
Experimental: (§1) An Applied Photophysics stopped-flow instrument has been used for assaying the CA catalysed CO2 hydration activity. […] The CO2 concentrations ranged from 1.7 to 17 mM for the determination of the kinetic parameters and inhibition constants. In particular, CO2 was bubbled in distilled deionised water for 30 min till saturation. A CO2 kit (Sigma, Milan, Italy) was used to measure the concentration in serially diluted solutions from the saturated one at the same temperature. […] The uncatalyzed rates were determined in the same manner and subtracted from the total observed rates. Stock solutions of inhibitor (1 µM) were prepared in distilled-deionised water and dilutions up to 0.1 nM were done thereafter with the assay buffer. […] The inhibition constants were obtained by non-linear least-squares methods using PRISM 3 and the Cheng-Prusoff equation[29], and represent the average from at least three different determinations. All recombinant CA isoforms were obtained in-house as previously reported[30]^,[31].

hCA II [2] = target: T2, hCA II (Homo sapiens, UniProt P00918); assay: stopped-flow CO2 hydrase assay, hCA II; format: biochemical; settings: mean from three determinations, errors 5–10%
T2 construct: made in house
Experimental: as §1

hCA IX [3] = target: T3, hCA IX (Homo sapiens, UniProt Q16790); assay: stopped-flow CO2 hydrase assay, hCA IX; format: biochemical; settings: mean from three determinations, errors 5–10%
T3 construct: made in house
Experimental: as §1

hCA XII [4] = target: T4, hCA XII (Homo sapiens, UniProt O43570); assay: stopped-flow CO2 hydrase assay, hCA XII; format: biochemical; settings: mean from three determinations, errors 5–10%
T4 construct: made in house
Experimental: as §1

hCA I [5] = target: T1, hCA I; set-up: method as in PMID 25407638; settings: lead compound, earlier report; cited from earlier work
hCA II [6] = target: T2, hCA II; set-up: method as in PMID 25407638; settings: lead compound, earlier report; cited from earlier work
hCA IX [7] = target: T3, hCA IX; set-up: method as in PMID 25407638; settings: lead compound, earlier report; cited from earlier work
hCA XII [8] = target: T4, hCA XII; set-up: method as in PMID 25407638; settings: lead compound, earlier report; cited from earlier work

T1 sequence (P00915 whole entry): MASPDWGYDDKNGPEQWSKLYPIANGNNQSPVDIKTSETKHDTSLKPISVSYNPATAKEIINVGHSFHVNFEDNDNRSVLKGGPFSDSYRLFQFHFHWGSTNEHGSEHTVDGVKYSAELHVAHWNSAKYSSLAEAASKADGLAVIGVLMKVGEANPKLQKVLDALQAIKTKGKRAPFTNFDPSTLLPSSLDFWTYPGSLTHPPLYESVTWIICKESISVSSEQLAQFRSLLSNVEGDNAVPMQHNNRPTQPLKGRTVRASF
T4 sequence (O43570 25-354): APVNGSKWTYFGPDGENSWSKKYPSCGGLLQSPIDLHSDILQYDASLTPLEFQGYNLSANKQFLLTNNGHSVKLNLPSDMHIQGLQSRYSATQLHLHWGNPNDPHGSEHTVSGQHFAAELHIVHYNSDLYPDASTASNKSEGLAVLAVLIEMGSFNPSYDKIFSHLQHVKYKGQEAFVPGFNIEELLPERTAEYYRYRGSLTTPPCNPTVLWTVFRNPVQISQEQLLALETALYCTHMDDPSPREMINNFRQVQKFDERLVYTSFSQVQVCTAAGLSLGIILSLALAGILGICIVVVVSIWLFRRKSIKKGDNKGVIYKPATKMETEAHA

Work on C[S+]([O-])c1ccccc1C(N)=O (centres unmarked) [Compound 25] yielded a Ki (hCA I [1]) greater than 100 µM, a Ki (hCA II [2]) greater than 100 µM and a Ki (hCA IX [3]) of 34.5 µM. It also gave a Ki (hCA XII [4]) greater than 100 µM.

CS(=O)(=O)c1ccccc1C(N)=O [Compound 26] gave a Ki (hCA I [1]) greater than 100 µM, a Ki (hCA II [2]) greater than 100 µM and a Ki (hCA IX [3]) of 14 µM. The Ki (hCA XII [4]) was greater than 100 µM.

Compound CCSc1ccccc1C(N)=O [Compound 27] has a Ki (hCA I [1]) greater than 100 µM, a Ki (hCA II [2]) greater than 100 µM and a Ki (hCA IX [3]) of 16.7 µM. The Ki (hCA XII [4]) was greater than 100 µM.

In the case of CC[S+]([O-])c1ccccc1C(N)=O (centres unmarked) [Compound 28], the Ki (hCA I [1]) is reported as greater than 100 µM, the Ki (hCA II [2]) is reported as greater than 100 µM and the Ki (hCA IX [3]) is reported as 40.9 µM. The Ki (hCA XII [4]) was greater than 100 µM.

With CCS(=O)(=O)c1ccccc1C(N)=O [Compound 29] the Ki (hCA I [1]) was greater than 100 µM, the Ki (hCA II [2]) was greater than 100 µM and the Ki (hCA IX [3]) was 22.7 µM. For the same compound, the Ki (hCA XII [4]) was greater than 100 µM.

With CCCSc1ccccc1C(N)=O [Compound 30] the Ki (hCA I [1]) was greater than 100 µM, the Ki (hCA II [2]) was 90.9 µM and the Ki (hCA IX [3]) was greater than 100 µM. For the same compound, the Ki (hCA XII [4]) was greater than 100 µM.

CCC[S+]([O-])c1ccccc1C(N)=O (centres unmarked) [Compound 31] showed a Ki (hCA I [1]) greater than 100 µM, a Ki (hCA II [2]) greater than 100 µM and a Ki (hCA IX [3]) of 38.2 µM. The Ki (hCA XII [4]) was greater than 100 µM.

Compound CCCS(=O)(=O)c1ccccc1C(N)=O [Compound 32] has a Ki (hCA I [1]) greater than 100 µM, a Ki (hCA II [2]) greater than 100 µM and a Ki (hCA IX [3]) of 2.3 µM. The Ki (hCA XII [4]) was greater than 100 µM.

Compound CCCCSc1ccccc1C(N)=O [Compound 33] has a Ki (hCA I [1]) greater than 100 µM, a Ki (hCA II [2]) greater than 100 µM and a Ki (hCA IX [3]) of 2.5 µM. It also gave a Ki (hCA XII [4]) greater than 100 µM.

For CCCC[S+]([O-])c1ccccc1C(N)=O (centres unmarked) [Compound 34], the Ki (hCA I [1]) was greater than 100 µM, the Ki (hCA II [2]) was greater than 100 µM and the Ki (hCA IX [3]) was 36.4 µM. The Ki (hCA XII [4]) was greater than 100 µM.

In the case of CCCCS(=O)(=O)c1ccccc1C(N)=O [Compound 35], the Ki (hCA I [1]) is reported as greater than 100 µM, the Ki (hCA II [2]) is reported as greater than 100 µM and the Ki (hCA IX [3]) is reported as 13.5 µM. It also gave a Ki (hCA XII [4]) greater than 100 µM.

CCCCCSc1ccccc1C(N)=O [Compound 36] showed a Ki (hCA I [1]) greater than 100 µM, a Ki (hCA II [2]) greater than 100 µM and a Ki (hCA IX [3]) of 2.7 µM. The Ki (hCA XII [4]) was greater than 100 µM.

For CCCCC[S+]([O-])c1ccccc1C(N)=O (centres unmarked) [Compound 37], the Ki (hCA I [1]) was greater than 100 µM, the Ki (hCA II [2]) was greater than 100 µM and the Ki (hCA IX [3]) was 27.3 µM. It also gave a Ki (hCA XII [4]) greater than 100 µM.

Compound CCCCCS(=O)(=O)c1ccccc1C(N)=O [Compound 38] has a Ki (hCA I [1]) greater than 100 µM, a Ki (hCA II [2]) greater than 100 µM and a Ki (hCA IX [3]) of 8.7 µM. The Ki (hCA XII [4]) was greater than 100 µM.

Compound O=C(O)c1ccccc1OCc1ccccc1 [Compound 39] has a Ki (hCA I [1]) greater than 100 µM, a Ki (hCA II [2]) greater than 100 µM and a Ki (hCA IX [3]) greater than 100 µM. It also gave a Ki (hCA XII [4]) greater than 100 µM.

Compound O=C(O)c1ccccc1NCc1ccccc1 [Compound 40] has a Ki (hCA I [1]) greater than 100 µM, a Ki (hCA II [2]) greater than 100 µM and a Ki (hCA IX [3]) greater than 100 µM. The Ki (hCA XII [4]) was greater than 100 µM.

O=C(O)c1ccccc1CCc1ccccc1 [Compound 41] gave a Ki (hCA I [1]) greater than 100 µM, a Ki (hCA II [2]) greater than 100 µM and a Ki (hCA IX [3]) greater than 100 µM. For the same compound, the Ki (hCA XII [4]) was greater than 100 µM.

O=C(Cc1ccccc1)Nc1ccccc1C(=O)O [Compound 42] gave a Ki (hCA I [1]) greater than 100 µM, a Ki (hCA II [2]) greater than 100 µM and a Ki (hCA IX [3]) greater than 100 µM. It also gave a Ki (hCA XII [4]) greater than 100 µM.

Work on Nc1ccccc1C(=O)O [Compound 43, anthranilic acid] yielded a Ki (hCA I [1]) greater than 100 µM, a Ki (hCA II [2]) greater than 100 µM and a Ki (hCA IX [3]) greater than 100 µM. The Ki (hCA XII [4]) was greater than 100 µM.

Compound COC(=O)c1ccccc1OCc1ccccc1 [Compound 44] has a Ki (hCA I [1]) greater than 100 µM, a Ki (hCA II [2]) greater than 100 µM and a Ki (hCA IX [3]) greater than 100 µM. The Ki (hCA XII [4]) was greater than 100 µM.

Compound COC(=O)c1ccccc1NCc1ccccc1 [Compound 45] has a Ki (hCA I [1]) greater than 100 µM, a Ki (hCA II [2]) greater than 100 µM and a Ki (hCA IX [3]) greater than 100 µM. The Ki (hCA XII [4]) was greater than 100 µM.

Work on COC(=O)c1ccccc1CCc1ccccc1 [Compound 46] yielded a Ki (hCA I [1]) greater than 100 µM, a Ki (hCA II [2]) greater than 100 µM and a Ki (hCA IX [3]) greater than 100 µM. It also gave a Ki (hCA XII [4]) greater than 100 µM.

For NC(=O)c1ccccc1NCc1ccccc1 [Compound 48], the Ki (hCA I [1]) was greater than 100 µM, the Ki (hCA II [2]) was greater than 100 µM and the Ki (hCA IX [3]) was greater than 100 µM. For the same compound, the Ki (hCA XII [4]) was greater than 100 µM.

Work on NC(=O)c1ccccc1CCc1ccccc1 [Compound 49] yielded a Ki (hCA I [1]) greater than 100 µM, a Ki (hCA II [2]) greater than 100 µM and a Ki (hCA IX [3]) greater than 100 µM. It also gave a Ki (hCA XII [4]) greater than 100 µM.

NC(=O)c1ccccc1NC(=O)Cc1ccccc1 [Compound 50] gave a Ki (hCA I [1]) greater than 100 µM, a Ki (hCA II [2]) greater than 100 µM and a Ki (hCA IX [3]) greater than 100 µM. For the same compound, the Ki (hCA XII [4]) was greater than 100 µM.

Compound O=C(NO)c1ccccc1NCc1ccccc1 [Compound 51] has a Ki (hCA I [1]) greater than 100 µM, a Ki (hCA II [2]) greater than 100 µM and a Ki (hCA IX [3]) greater than 100 µM. The Ki (hCA XII [4]) was greater than 100 µM.

Compound CC(=O)c1ccccc1OCc1ccccc1 [Compound 52] has a Ki (hCA I [1]) greater than 100 µM, a Ki (hCA II [2]) greater than 100 µM and a Ki (hCA IX [3]) greater than 100 µM. For the same compound, the Ki (hCA XII [4]) was greater than 100 µM.

CC(=O)c1ccccc1NCc1ccccc1 [Compound 53] gave a Ki (hCA I [1]) greater than 100 µM, a Ki (hCA II [2]) greater than 100 µM and a Ki (hCA IX [3]) greater than 100 µM. It also gave a Ki (hCA XII [4]) greater than 100 µM.

In the case of O=C(O)c1ccccc1[S+]([O-])Cc1ccccc1 (centres unmarked) [lead compound, 2-(benzylsulfinyl)benzoic acid], the Ki (hCA I [5]) is given as greater than 10 µM, the Ki (hCA II [6]) is given as 0.15 µM and the Ki (hCA IX [7]) is given as 1.29 µM. The Ki (hCA XII [8]) was greater than 10 µM.
